Consider one compound from the NIST ThermoML archive (doi:10.1016/j.fluid.2013.11.034).

In general, mass density refers to the mass of a sample divided by its volume. By refractive index is commonly meant the speed of light in vacuum divided by its phase velocity in the sample.

Numbers after ± are expanded uncertainties.

The conditions of series [1]: 101.33 kPa, Liquid, Vibrating tube method.
Series [2] is described as follows: refractive index (Na D-line) (dimensionless). The note with it: 298.15 K; 101.33 kPa; Liquid; Standard Abbe refractometry.

For `CCCCn1cc[n+](C)c1.F[P-](F)(F)(F)(F)F` [1-butyl-3-methylimidazolium hexafluorophosphate], the mass density in series [1] (293.15 K) came out at 1371.4 ± 1.2 kg/m3; in series [1] (298.15 K) it was 1367.23 ± 1.1 kg/m3. Besides, the refractive index in series [2] turned out to be 1.40926 ± 0.0006.
